A short description of series [1]: Ratio of drug level brain to plasma in Sprague-Dawley rat at 5 umol/kg, iv. As to conditions: brain and plasma, read-out: BPR. Format: ADME.
Series [2] in a line: Apparent permeability from apical to basolateral side of MDCK cells expressing MDR1. As to conditions: dog. The class given is ADME, cell-based, Canis lupus familiaris.
Series [3] is described as follows: Intrinsic clearance in human liver microsomes. The class given is ADME, Microsome. On the technique in general: Microsomes from liver hold many membrane-bound enzymes, among them those of drug oxidation.
Series [4] can be described thus: Intrinsic clearance in rat liver microsomes. The class given is ADME, Microsome.
Series [5] relates to Rattus norvegicus. As to the kind of experiment: Clearance in Sprague-Dawley rat plasma at 2 umol/kg, iv. Format: ADME, organism-based. Conditions: in vivo.
A short description of series [6]: Half life in Sprague-Dawley rat at 2 umol/kg, iv. Format: ADME, organism-based. As to conditions: in vivo.
A short description of series [7]: Volume of distribution at steady state in Sprague-Dawley rat at 2 umol/kg, iv. The class given is ADME, organism-based. As to conditions: in vivo, read-out: Vdss.
Series [8] can be described thus: Ratio of drug level brain to plasma in Sprague-Dawley rat at 2 umol/kg, iv. Format: ADME. Conditions: brain and plasma, read-out: BPR.
A short description of series [9]: Oral bioavailability in Sprague-Dawley rat at 2 umol/kg. The class given is ADME, organism-based. Conditions: in vivo.

For orientation: Papp A→B means how fast a substance crosses the layer from the apical side. One may read the microsomal CLint as the capacity of the preparation to metabolise the compound, expressed as a volume cleared per time. `CN(C)C(=O)N[C@H]1CC[C@@H](CCN2[C@@H]3CC[C@H]2C[C@@H](Oc2cccc(C(N)=O)c2)C3)CC1`: the Kp in series [1] was found to be 0.22. In [2], the Papp A→B was 1.9 ×10⁻⁶ cm/s. For the same molecule, the values for the microsomal CLint in series [3] and in series [4] were under 4 µL/min/mg and 30 µL/min/mg, respectively.

As a reminder, the half-life is how long it takes for the measured level to halve. Higher therefore signals slow decline. Usually bioavailability stands for dose-corrected exposure relative to a reference, in per cent. A higher bioavailability goes with much systemic uptake. In the case of `NC(=O)c1cccc(C[C@H]2C[C@H]3CC[C@@H](C2)N3Cc2ccccc2)c1`, the CL in series [5] was determined as 124 µL/min/mg. For the same molecule, the Papp A→B in series [2] stood at 14 ×10⁻⁶ cm/s. Moreover, the microsomal CLint in [3] is under 4 µL/min/mg; in [4] it was 65 µL/min/mg. The half-life in series [6] is 1.3 h. The Vd in series [7] is 6.6 L/kg. The Kp in series [8] came to 1.9. Also, the bioavailability in [9] was 5%.

For the origin of these results see ChEMBL document CHEMBL1221377, “SAR development of a series of 8-azabicyclo[3.2.1]octan-3-yloxy-benzamides as kappa opioid receptor antagonists. Part 2” (Bioorg Med Chem Lett, 2010).
